# Experiments:
# Experiment in all cases: SignalChem radioisotope protein kinase assay
# Assay type in all cases: biochemical
# Conditions in all cases: 5 μl of 100 μM stock solution in 25 μl
# PAK7 = PAK7 (Homo sapiens, UniProt Q9P286)
# From the text: (§1) The various protein kinase targets to be employed in the kinase profiling assay were cloned, expressed and purified in-house at SignalChem (Richmond, BC, Canada) using proprietary methods. Quality control testing is routinely performed on each of the SignalChem targets to ensure compliance to acceptable standards. Protein substrates employed in the target profiling process were synthesized internally. ^33P-ATP was purchased from PerkinElmer. All other materials were of standard grade. Compound 10 (FIG. 4) was supplied to SignalChem in a powder form. It was reconstituted in DMSO to form a stock solution which was then diluted with 10% DMSO to form a working stock solution (100 μM) that was then profiled against the various protein kinase targets. The assay conditions for the various protein kinase targets were optimized to yield acceptable enzymatic activity. In addition, the assays were optimized to give high signal-to-noise ratio.
# (§2) SignalChem uses a radioisotope assay format for profiling evaluation of protein kinase targets. Protein kinase assays were performed in triplicate at ambient temperature for 20-40 min (depending on the target) in a final volume of 25 μl according to the following assay reaction recipe: • Component 1: 5 μl of diluted active protein kinase target (˜10-40 nM final protein concentration in the assay) • Component 2: 5 μl of stock solution of substrate (1-5 μg of peptide or protein substrate) • Component 3: 5 μl of kinase assay buffer or protein kinase activator in kinase assay buffer • Component 4: 5 μl of Compound 10 (100 μM stock solution) or 10% DMSO • Component 5: 5 μl of 33P-ATP (25 μM stock solution, 0.8 μCi)
# (§3) The assay was initiated by the addition of ^33P-ATP and the reaction mixture incubated at ambient temperature for 20-40 minutes, depending on the protein kinase target. After the incubation period, the assay was terminated by spotting 10 μl of the reaction mixture onto a Millipore Multiscreen plate. The Millipore Multiscreen plate was washed 3 times for approximately 15 minutes each in a 1% phosphoric acid solution. The radioactivity on the P81 plate was counted in the presence of scintillation fluid in a Trilux scintillation counter. Blank control, which included all the assay components except the addition of the appropriate substrate (replaced with equal volume of assay dilution buffer), was set up for each protein kinase target. The corrected activity for each protein kinase target was determined by removing the blank control value.
# BRAF = BRAF (Homo sapiens, UniProt P15056)
# Chain of BRAF (P15056 whole entry, species assumed): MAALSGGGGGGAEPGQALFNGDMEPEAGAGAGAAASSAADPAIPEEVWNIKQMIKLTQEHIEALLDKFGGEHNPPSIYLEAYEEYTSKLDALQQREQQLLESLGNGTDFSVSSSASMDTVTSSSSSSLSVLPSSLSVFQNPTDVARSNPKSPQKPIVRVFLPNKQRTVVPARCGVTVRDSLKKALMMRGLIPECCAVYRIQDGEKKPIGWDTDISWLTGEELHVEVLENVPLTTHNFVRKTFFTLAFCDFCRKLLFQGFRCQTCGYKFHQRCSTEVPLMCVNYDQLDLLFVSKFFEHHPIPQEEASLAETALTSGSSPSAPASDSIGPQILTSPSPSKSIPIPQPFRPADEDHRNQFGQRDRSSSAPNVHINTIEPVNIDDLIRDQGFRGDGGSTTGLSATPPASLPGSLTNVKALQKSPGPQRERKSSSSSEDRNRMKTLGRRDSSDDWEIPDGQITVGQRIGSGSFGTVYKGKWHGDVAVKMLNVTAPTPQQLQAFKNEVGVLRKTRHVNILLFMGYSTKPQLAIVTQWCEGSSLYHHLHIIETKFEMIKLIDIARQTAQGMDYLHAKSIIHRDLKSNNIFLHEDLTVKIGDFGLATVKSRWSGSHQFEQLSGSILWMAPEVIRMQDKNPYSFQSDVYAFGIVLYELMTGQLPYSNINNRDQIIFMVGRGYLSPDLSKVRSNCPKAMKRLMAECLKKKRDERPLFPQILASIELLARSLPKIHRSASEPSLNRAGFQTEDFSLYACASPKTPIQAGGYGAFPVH
# From the text: as §1, §2, §3
# PIM1 = PIM1 (Homo sapiens, UniProt P11309)
# From the text: as §1, §2, §3
# LCK = LCK (Homo sapiens, UniProt P06239)
# From the text: as §1, §2, §3
# PDGFRβ = PDGFRβ (Homo sapiens, UniProt P09619)
# Chain of PDGFRβ (P09619 33-1106, species assumed): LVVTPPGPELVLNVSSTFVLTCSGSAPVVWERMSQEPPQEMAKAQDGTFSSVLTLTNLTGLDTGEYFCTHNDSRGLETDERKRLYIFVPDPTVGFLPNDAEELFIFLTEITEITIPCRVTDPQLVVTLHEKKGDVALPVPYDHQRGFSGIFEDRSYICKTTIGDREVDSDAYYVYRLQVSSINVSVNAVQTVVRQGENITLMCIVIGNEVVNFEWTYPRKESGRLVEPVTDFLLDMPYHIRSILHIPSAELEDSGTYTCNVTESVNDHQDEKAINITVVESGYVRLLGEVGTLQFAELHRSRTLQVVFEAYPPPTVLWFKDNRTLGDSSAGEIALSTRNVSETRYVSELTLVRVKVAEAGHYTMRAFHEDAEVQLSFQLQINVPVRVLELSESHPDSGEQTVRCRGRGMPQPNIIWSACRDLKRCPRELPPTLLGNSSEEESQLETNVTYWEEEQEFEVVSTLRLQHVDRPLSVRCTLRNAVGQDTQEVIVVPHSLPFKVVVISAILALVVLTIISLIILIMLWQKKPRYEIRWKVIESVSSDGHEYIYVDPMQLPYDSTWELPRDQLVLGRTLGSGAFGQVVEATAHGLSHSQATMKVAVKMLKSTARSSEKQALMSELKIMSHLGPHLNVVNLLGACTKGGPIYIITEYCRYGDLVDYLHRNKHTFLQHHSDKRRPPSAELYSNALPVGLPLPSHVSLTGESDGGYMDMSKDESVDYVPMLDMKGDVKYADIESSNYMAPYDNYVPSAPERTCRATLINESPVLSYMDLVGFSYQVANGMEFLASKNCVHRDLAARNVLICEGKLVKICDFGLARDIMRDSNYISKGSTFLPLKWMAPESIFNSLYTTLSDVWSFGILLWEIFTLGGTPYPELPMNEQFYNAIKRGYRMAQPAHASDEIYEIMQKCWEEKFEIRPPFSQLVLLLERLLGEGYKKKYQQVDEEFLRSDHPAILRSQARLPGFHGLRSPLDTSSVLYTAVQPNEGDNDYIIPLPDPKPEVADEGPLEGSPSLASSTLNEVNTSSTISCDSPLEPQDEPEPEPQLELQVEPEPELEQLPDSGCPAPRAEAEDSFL
# From the text: as §1, §2, §3
# PKCα = molecular target: T1, PKCα (Homo sapiens, UniProt P17252)
# T1 construct: purchased SignalChem
# From the text: as §1, §2, §3
# AKT2 = AKT2 (Homo sapiens, UniProt P31751)
# From the text: as §1, §2, §3
# ABL2 = ABL2 (Homo sapiens, UniProt P42684)
# Chain of ABL2 (P42684 whole entry, species assumed): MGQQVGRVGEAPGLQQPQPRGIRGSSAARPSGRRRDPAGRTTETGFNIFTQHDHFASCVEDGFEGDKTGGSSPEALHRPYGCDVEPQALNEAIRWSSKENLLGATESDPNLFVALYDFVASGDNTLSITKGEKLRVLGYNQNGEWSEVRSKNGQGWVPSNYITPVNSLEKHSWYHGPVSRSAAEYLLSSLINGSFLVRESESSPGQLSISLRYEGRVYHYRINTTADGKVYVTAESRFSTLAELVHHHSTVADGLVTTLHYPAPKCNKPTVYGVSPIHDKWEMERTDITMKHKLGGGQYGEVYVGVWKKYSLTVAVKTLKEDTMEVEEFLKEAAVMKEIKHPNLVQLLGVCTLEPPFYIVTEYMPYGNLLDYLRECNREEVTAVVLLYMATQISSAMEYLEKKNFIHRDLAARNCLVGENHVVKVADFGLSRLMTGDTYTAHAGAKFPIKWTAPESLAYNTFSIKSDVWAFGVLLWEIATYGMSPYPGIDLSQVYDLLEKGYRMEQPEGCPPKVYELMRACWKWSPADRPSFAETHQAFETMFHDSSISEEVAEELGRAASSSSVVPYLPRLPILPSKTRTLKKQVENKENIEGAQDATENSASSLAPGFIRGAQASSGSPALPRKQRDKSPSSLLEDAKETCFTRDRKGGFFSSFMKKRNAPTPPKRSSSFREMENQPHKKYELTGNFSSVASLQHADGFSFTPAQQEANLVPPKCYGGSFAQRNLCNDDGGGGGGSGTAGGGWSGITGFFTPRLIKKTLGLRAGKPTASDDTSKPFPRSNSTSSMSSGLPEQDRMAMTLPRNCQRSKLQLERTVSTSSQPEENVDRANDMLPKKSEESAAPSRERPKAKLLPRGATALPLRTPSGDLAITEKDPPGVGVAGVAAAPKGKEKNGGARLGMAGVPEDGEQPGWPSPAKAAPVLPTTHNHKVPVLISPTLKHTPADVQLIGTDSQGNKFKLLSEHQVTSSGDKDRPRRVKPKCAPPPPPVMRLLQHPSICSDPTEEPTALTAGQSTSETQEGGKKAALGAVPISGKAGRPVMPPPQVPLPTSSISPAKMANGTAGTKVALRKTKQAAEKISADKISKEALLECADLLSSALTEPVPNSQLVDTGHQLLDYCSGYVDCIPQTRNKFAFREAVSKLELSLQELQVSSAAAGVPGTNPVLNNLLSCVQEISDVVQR
# From the text: as §1, §2, §3
# AURORA B = AURORA B (Homo sapiens, UniProt Q96GD4)
# From the text: as §1, §2, §3
# MEK1 = MEK1 (Homo sapiens, UniProt Q02750)
# Chain of MEK1 (Q02750 whole entry, species assumed): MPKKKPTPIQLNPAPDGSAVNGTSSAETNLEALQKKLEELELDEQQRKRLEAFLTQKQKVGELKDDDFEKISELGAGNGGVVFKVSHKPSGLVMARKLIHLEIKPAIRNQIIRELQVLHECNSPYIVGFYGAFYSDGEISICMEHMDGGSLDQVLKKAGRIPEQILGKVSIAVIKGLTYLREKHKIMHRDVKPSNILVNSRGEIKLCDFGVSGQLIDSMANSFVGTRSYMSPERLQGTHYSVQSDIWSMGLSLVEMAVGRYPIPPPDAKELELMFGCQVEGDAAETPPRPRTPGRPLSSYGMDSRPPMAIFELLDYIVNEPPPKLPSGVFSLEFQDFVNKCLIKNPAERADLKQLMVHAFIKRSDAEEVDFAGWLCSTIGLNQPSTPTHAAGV
# From the text: as §1, §2, §3
# SGK1 = molecular target: T2, SGK1 (Homo sapiens, UniProt O00141)
# T2 construct: purchased SignalChem
# From the text: as §1, §2, §3
# RSK1 = molecular target: T3, RSK1 (Homo sapiens, UniProt Q15418)
# T3 construct: purchased SignalChem
# From the text: as §1, §2, §3
# BRK = BRK (Homo sapiens, UniProt Q13882)
# From the text: as §1, §2, §3
# PDK1 = PDK1 (Homo sapiens, UniProt O15530)
# From the text: as §1, §2, §3
# ALK4 = ALK4 (Homo sapiens, UniProt P36896)
# From the text: as §1, §2, §3
# ERK2 = ERK2 (Homo sapiens, UniProt P28482)
# Chain of ERK2 (P28482 whole entry, species assumed): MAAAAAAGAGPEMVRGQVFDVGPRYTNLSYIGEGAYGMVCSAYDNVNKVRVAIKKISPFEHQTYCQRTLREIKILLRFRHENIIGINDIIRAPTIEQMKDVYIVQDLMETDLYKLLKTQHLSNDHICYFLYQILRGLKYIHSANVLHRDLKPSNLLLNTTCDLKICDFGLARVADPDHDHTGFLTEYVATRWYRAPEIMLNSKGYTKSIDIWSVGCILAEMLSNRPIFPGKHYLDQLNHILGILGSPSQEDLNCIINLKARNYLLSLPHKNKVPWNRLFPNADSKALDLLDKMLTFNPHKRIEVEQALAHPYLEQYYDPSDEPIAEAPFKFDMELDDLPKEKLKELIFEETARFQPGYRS
# From the text: as §1, §2, §3
# RSK2 = molecular target: T4, RSK2 (Homo sapiens, UniProt P51812)
# T4 construct: purchased SignalChem
# From the text: as §1, §2, §3
# HCK = HCK (Homo sapiens, UniProt P08631)
# From the text: as §1, §2, §3
# RAF1(EE) = molecular target: T5, RAF1(EE) (Homo sapiens, UniProt P04049, Y340E/Y341E)
# T5 construct: purchased SignalChem
# From the text: as §1, §2, §3
# FAK = FAK (Homo sapiens, UniProt Q05397)
# From the text: as §1, §2, §3
# p38β = p38β (Homo sapiens, UniProt Q15759)
# Chain of p38β (Q15759 whole entry): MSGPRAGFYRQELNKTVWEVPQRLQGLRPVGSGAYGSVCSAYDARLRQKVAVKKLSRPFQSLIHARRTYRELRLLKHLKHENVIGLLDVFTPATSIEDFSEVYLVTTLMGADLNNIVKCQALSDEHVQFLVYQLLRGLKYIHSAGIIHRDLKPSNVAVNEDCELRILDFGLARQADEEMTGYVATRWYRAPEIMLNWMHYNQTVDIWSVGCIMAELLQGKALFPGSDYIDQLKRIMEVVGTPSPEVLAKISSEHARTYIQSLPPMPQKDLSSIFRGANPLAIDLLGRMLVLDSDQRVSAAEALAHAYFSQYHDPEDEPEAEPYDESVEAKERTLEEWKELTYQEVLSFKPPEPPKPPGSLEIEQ
# From the text: as §1, §2, §3
# PDGFRα = PDGFRα (Homo sapiens, UniProt P16234)
# From the text: as §1, §2, §3
# MARK1 = MARK1 (Homo sapiens, UniProt Q9P0L2)
# Chain of MARK1 (Q9P0L2 whole entry, species assumed): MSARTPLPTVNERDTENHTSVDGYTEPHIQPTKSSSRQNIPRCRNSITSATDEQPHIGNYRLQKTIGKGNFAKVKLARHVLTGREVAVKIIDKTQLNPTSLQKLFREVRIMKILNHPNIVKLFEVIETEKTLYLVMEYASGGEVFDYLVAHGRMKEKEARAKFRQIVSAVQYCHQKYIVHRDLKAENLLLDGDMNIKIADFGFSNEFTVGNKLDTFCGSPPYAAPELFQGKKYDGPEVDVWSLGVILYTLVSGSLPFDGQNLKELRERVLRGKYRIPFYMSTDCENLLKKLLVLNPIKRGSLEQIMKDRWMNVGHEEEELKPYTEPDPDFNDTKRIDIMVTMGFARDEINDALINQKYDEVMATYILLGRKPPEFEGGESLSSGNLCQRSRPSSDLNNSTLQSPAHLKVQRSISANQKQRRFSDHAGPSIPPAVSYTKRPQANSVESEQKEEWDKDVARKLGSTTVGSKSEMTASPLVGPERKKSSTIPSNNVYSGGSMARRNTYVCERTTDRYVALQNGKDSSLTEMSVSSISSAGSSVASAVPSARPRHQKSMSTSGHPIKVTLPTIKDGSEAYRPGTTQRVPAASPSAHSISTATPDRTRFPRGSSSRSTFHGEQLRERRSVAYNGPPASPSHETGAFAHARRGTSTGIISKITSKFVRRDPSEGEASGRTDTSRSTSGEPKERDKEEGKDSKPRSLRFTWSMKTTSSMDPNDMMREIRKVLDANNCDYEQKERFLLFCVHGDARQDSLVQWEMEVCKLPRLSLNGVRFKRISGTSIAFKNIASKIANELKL
# From the text: as §1, §2, §3
# FER = FER (Homo sapiens, UniProt P16591)
# From the text: as §1, §2, §3
# NEK6 = NEK6 (Homo sapiens, UniProt Q9HC98)
# From the text: as §1, §2, §3
# PAK4 = PAK4 (Homo sapiens, UniProt O96013)
# From the text: as §1, §2, §3
# c-KIT = c-KIT (Homo sapiens, UniProt P10721)
# From the text: as §1, §2, §3
# MARK3 = MARK3 (Homo sapiens, UniProt P27448)
# From the text: as §1, §2, §3
# PIM2 = PIM2 (Homo sapiens, UniProt Q9P1W9)
# From the text: as §1, §2, §3
smiles,measurement,setting,value
CCOC(=O)C[C@@H]1C(O[Si](C)(C)C(C)(C)C)[C@H](n2cnc3c(NC(=O)Nc4ccccc4)ncnc32)O[C@@H]1CNC(=O)NC (some centres unmarked) [Compound 10],% Activity Change,PAK7,21%
same,% Activity Change,BRAF,1%
same,% Activity Change,PIM1,51%
same,% Activity Change,LCK,30%
same,% Activity Change,PDGFRβ,−7%
same,% Activity Change,PKCα,36%
same,% Activity Change,AKT2,27%
same,% Activity Change,ABL2,8%
same,% Activity Change,AURORA B,4%
same,% Activity Change,MEK1,8%
same,% Activity Change,SGK1,36%
same,% Activity Change,RSK1,4%
same,% Activity Change,BRK,2%
same,% Activity Change,PDK1,8%
same,% Activity Change,ALK4,2%
same,% Activity Change,ERK2,−4%
same,% Activity Change,RSK2,−4%
same,% Activity Change,HCK,18%
same,% Activity Change,RAF1(EE),0%
same,% Activity Change,FAK,−3%
same,% Activity Change,p38β,15%
same,% Activity Change,PDGFRα,−2%
same,% Activity Change,MARK1,5%
same,% Activity Change,FER,−3%
same,% Activity Change,NEK6,28%
same,% Activity Change,PAK4,−20%
same,% Activity Change,c-KIT,−6%
same,% Activity Change,MARK3,−1%
same,% Activity Change,PIM2,18%
